Results from the supplement of paper PMC10307832.

How the values were obtained:
Assay in all cases: relative viability (nuclei count vs DMSO), 5 days (fraction); higher = more cells survive
[1] = compound: CC(=O)Nc1cccc(-n2c(=O)n(C3CC3)c(=O)c3c(Nc4ccc(I)cc4F)n(C)c(=O)c(C)c32)c1 [Trametinib] + CC(=O)c1c(C)c2cnc(Nc3ccc(N4CCNCC4)cn3)nc2n(C2CCCC2)c1=O [Palbociclib] (partner 0.5 µM)
Procedure, shortened: (§1)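 Medians of duplicate plates are given as relative viability. That measure is the nuclei count in treated wells divided by the count in vehicle wells. Counts were taken on 4× images of lung cancer cell lines in 1536-well plates, 5 days after pin-tool dosing the day after seeding with one drug alone or a fixed anchor-drug dose plus five library-drug doses (not always all listed) in √10 steps.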

[2] = compound: CC(=O)Nc1cccc(-n2c(=O)n(C3CC3)c(=O)c3c(Nc4ccc(I)cc4F)n(C)c(=O)c(C)c32)c1 [Trametinib] + Cc1nc(Nc2ncc(C(=O)Nc3c(C)cccc3Cl)s2)cc(N2CCN(CCO)CC2)n1 [Dasatinib] (partner 0.075 µM)
Procedure, shortened: as §1

[3] = compound: CC(=O)Nc1cccc(-n2c(=O)n(C3CC3)c(=O)c3c(Nc4ccc(I)cc4F)n(C)c(=O)c(C)c32)c1 [Trametinib] + Nc1ncn([C@H]2C[C@H](O)[C@@H](CO)O2)c(=O)n1 [Decitabine] (partner 2 µM)
Procedure, shortened: as §1

[4] = compound: CC(=O)Nc1cccc(-n2c(=O)n(C3CC3)c(=O)c3c(Nc4ccc(I)cc4F)n(C)c(=O)c(C)c32)c1 [Trametinib] + O=C(CCCCCCC(=O)Nc1ccccc1)NO [Vorinostat] (partner 1 µM)
Procedure, shortened: as §1

Cell Line	relative viability ([1]; first compound 0.0025 µM)	relative viability ([1]; first compound 0.007906 µM)	relative viability ([1]; first compound 0.025 µM)	relative viability ([1]; first compound 0.07906 µM)	relative viability ([1]; first compound 0.25 µM)	relative viability ([2]; first compound 0.0025 µM)	relative viability ([2]; first compound 0.007906 µM)	relative viability ([2]; first compound 0.025 µM)	relative viability ([2]; first compound 0.07906 µM)	relative viability ([2]; first compound 0.25 µM)	relative viability ([3]; first compound 0.0025 µM)	relative viability ([3]; first compound 0.007906 µM)	relative viability ([3]; first compound 0.025 µM)	relative viability ([3]; first compound 0.07906 µM)	relative viability ([3]; first compound 0.25 µM)	relative viability ([4]; first compound 0.0025 µM)	relative viability ([4]; first compound 0.007906 µM)	relative viability ([4]; first compound 0.025 µM)	relative viability ([4]; first compound 0.07906 µM)	relative viability ([4]; first compound 0.25 µM)
201T	0.344	0.321	0.284	0.322	0.272	0.555	0.59	0.579	0.521	0.484	0.854	0.743	0.765	0.782	0.749	0.945	0.833	0.736	0.732	0.785
A549	–	–	–	–	–	–	–	–	–	–	0.224	0.245	0.209	0.168	0.0957	–	–	–	–	–
A-427	0.534	0.511	0.45	0.45	0.372	0.75	0.397	0.178	0.262	0.171	0.522	0.585	0.541	0.525	0.418	0.948	0.896	0.723	0.501	0.51
ABC-1	0.448	0.668	0.357	0.49	0.338	0.539	0.467	0.365	0.384	0.371	0.884	1.16	1.02	1.24	0.837	0.798	0.898	0.562	0.613	0.349
BEN	0.455	0.479	0.455	0.475	0.468	0.304	0.296	0.228	0.269	0.319	0.768	0.663	0.5	0.506	0.654	0.62	0.57	0.49	0.57	0.624
CAL-12T	0.387	0.193	0.179	0.171	0.187	0.232	0.219	0.268	0.165	0.104	–	–	–	–	–	0.728	0.637	0.394	0.41	0.265
COR-L23	0.317	0.246	0.191	0.143	0.14	0.446	0.449	0.502	0.484	0.246	0.428	0.435	0.329	0.372	0.293	0.463	0.465	0.529	0.421	0.312
